From paper PMC8979682, “Synthesis, Antioxidant, and Antidiabetic Activities of Ketone Derivatives of Succinimide” (Evidence-based Complementary and Alternative Medicine : eCAM, 2022)
≈ marks a conversion by molar mass, not a printed value.

Assays:
[1] = ABTS scavenging activity; format: biochemical
Description: For the determination of the antioxidant activity of the synthesized compounds, the previously reported method for ABTS scavenging activity was used with slight modification. The stock solution of 2.4 mM of potassium per sulfate solution and 7 mM ABTS solution was prepared by mixing them in equal volumes for 16 h. The stock solution thus prepared was diluted using methyl alcohol to give absorption of 0.7 ± 0.02 units when studied at the wavelength of 734 nm using a spectrophotometer. Fresh ABTS solution was prepared for each ABTS scavenging assay. About 150 μL of the ABTS working solution was added to 50 μL of synthesized compounds and kept in darkness for 10 min. […] Methanol was used as blank, and standard ascorbic acid was run at the same time. The absorbance was calculated utilizing a microplate reader at 734 nm.

[2] = DPPH scavenging activity; format: biochemical
Description: The antioxidant assay of the synthesized compounds was conducted following the previously reported method. A freshly prepared DPPH solution (50 μL of 1.0 × 10^−3 M) was added in methyl alcohol. Methanol was used as a control in this experiment. The prepared mixture was subjected to incubation at 25°C for 30 min. A decrease in the DPPH free radical concentration was calculated using a spectrophotometer at a wavelength of 517 nm. After incubation ascorbic acid was used as a positive control. The antioxidant activity was determined as a percent (%) of inhibition using the formula given:(1) percent inhibition=absorbancecontrol−absorbancesample/absorbancecontrol×100.

[3] = target: α-glucosidase; assay: in vitro α-glucosidase inhibition; format: biochemical
Description: For in vitro α-glucosidase activity, samples were prepared by adding glucopyranoside to phosphate buffer solvent, and different concentrations of the synthesized compounds (31.25, 62.5, 125, 250, and 500 µg/ml), respectively, were added to this solution and then the enzyme glucosidase in distilled water (0.5 µg/ml) was also added to the above mixture. The reaction mixture thus prepared was subjected to incubation at 37°C for 20 minutes. The reaction was halted by adding HCl after incubation of the mixture. The intensity of the color was determined at 540 nm by spectrophotometer, and the formula given below was used for the determination of percent inhibition:(2) percent inhibition=absorbancecontrol−absorbancesample/absorbancecontrol×100.

[4] = target: α-amylase; assay: in vitro α-amylase inhibition; format: biochemical
Description: The starch solution was added, following incubation of the mixture, and the reaction mixture thus prepared was kept in water bath at 100°C for some time. Microplate reader measured the intensity of the color at 656 nm. Following formula was used to determine percentage inhibition:(3) percent inhibition=absorbancecontrol−absorbancesample/absorbancecontrol×100.

[5] = test system: diabetic mice (by alloxan); assay: antidiabetic activity in diabetic mice (by alloxan); format: in vivo
Description: Alloxan was used for the induction of diabetes mellitus according to reported procedure. Recently prepared Alloxan (ALX) was injected intraperitoneally to animals, fasting for 16 h, at a single dose of (150 mg/kg). […] Only diabetic animals, having random blood glucose level more than 200 mg/dl, were selected for studies. All the experimental procedure were approved from the ethical committee department of pharmacy, University of Swabi via letter No; UOS-06/2021.
A total of 30 animals were used to determine the hypoglycemic effect of the synthesized derivatives of succinimide. The experimental animals were segregated in six groups […], having five (5) animals in each group. Group I was designated as normal group and was given normal saline I/P only. Group II was given Tween 80, and Group III was given standard drug (glibenclamide) after the induction of diabetes. Group IV, Group V, and Group VI were given the various doses of synthesized compounds, respectively. […]

[6] = test system: mice; assay: oral glucose tolerance test (OGTT); format: in vivo; settings: glucose 2 g/kg orally
Description: To perform OGTT mice fasted overnight were used including both control and treated mice. Glucose was administered orally at the dose of 2 g/kg against glibenclamide as standard drug. After administration of glucose, blood glucose level was calculated at time intervals of 0, 30, 60, and 120 min for assessment of the impact of exogenously given D-glucose on treated mice. OGTT was carried out 5 days before the completion of the study.
To perform OGTT, mice fasted overnight were used including both control and treated mice. Glucose was administered orally at the dose of 2 g/kg against glibenclamide as a standard drug. After administration of glucose, blood glucose level was calculated at time intervals of 0, 30, 60, and 120 min for assessment of the impact of exogenously given D-glucose on treated mice.

In the case of `O=C1CCCCC1C1CC(=O)N(c2ccccc2)C1=O` (stereo not drawn) [BW1, (2-Oxocyclohexyl)-1-Phenylpyrrolidine-2,5-Dione], the “IC50 (ABTS)” value [1] is reported as 9.40 µg/mL (≈ 34.6 µM), the “(%) ABTS inhibitions” value ([1]; 31.25 µg/ml) is reported as 55.67 ± 0.32^∗∗∗ % and the “(%) ABTS inhibitions” value ([1]; 62.50 µg/ml) is reported as 66.16 ± 0.16^∗∗∗ %. For the same molecule, the “(%) ABTS inhibitions” value ([1]; 125 µg/ml) was 70.62 ± 0.25^∗∗∗ %, the “(%) ABTS inhibitions” value ([1]; 250 µg/ml) was 73.36 ± 0.84^∗∗∗ % and the “(%) ABTS inhibitions” value ([1]; 500 µg/ml) was 78.35 ± 0.23^∗∗∗ %. The “IC50 (DPPH)” value [2] was 10.84 µg/mL (≈ 40 µM), the “(%) DPPH inhibitions” value ([2]; 31.25 µg/ml) was 62.03 ± 0.77^∗∗∗ % and the “(%) DPPH inhibitions” value ([2]; 250 µg/ml) was 77.23 ± 0.96^∗∗∗ %. For the same molecule, the “(%) DPPH inhibitions” value ([2]; 500 µg/ml) was 85.83 ± 0.47^∗∗ %, the “IC50 (α-glucosidase)” value [3] was 10.49 µg/mL (≈ 38.7 µM) and the “% inhibitions (α-glucosidase)” value ([3]; 31.25 µg/ml) was 65.80 ± 0.90^ns %. For the same molecule, the “% inhibitions (α-glucosidase)” value ([3]; 62.50 µg/ml) was 70.40 ± 0.20^ns %, the “% inhibitions (α-glucosidase)” value ([3]; 125 µg/ml) was 76.58 ± 0.63^ns % and the “% inhibitions (α-glucosidase)” value ([3]; 250 µg/ml) was 83.45 ± 0.90^ns %. For the same molecule, the “% inhibitions (α-glucosidase)” value ([3]; 500 µg/ml) was 89.08 ± 1.04^ns %, the “IC50 (α-amylase)” value [4] was 13.90 µg/mL (≈ 51.2 µM) and the “% inhibitions (α-amylase)” value ([4]; 31.25 µg/ml) was 57.40 ± 0.40^∗∗∗ %. For the same molecule, the “% inhibitions (α-amylase)” value ([4]; 62.50 µg/ml) was 65.08 ± 0.66^∗∗∗ %, the “% inhibitions (α-amylase)” value ([4]; 125 µg/ml) was 71.78 ± 0.44^∗∗∗ % and the “% inhibitions (α-amylase)” value ([4]; 250 µg/ml) was 75.32 ± 0.40^∗∗∗ %. The “% inhibitions (α-amylase)” value ([4]; 500 µg/ml) was 81.60 ± 0.00^∗∗∗ %, the “Change in body weight” value ([5]; dose 31.25 μg/kg) was “+2.3 Gm” and the “Blood glucose level, 0 day” value ([5]; dose 31.25 μg/kg) was 418 mg/dL. For the same molecule, the “Blood glucose level, 4th day” value ([5]; dose 31.25 μg/kg) was 408 mg/dL, the “Blood glucose level, 7th day” value ([5]; dose 31.25 μg/kg) was 399 mg/dL and the “Blood glucose level, 10th day” value ([5]; dose 31.25 μg/kg) was 382 mg/dL. The “Blood glucose level, 15th day” value ([5]; dose 31.25 μg/kg) was 375 mg/dL, the “Change in body weight” value ([5]; dose 62.5 μg/kg) was “+4.3 Gm” and the “Decrease in blood glucose after 15 days” value ([5]; dose 62.5 μg/kg) was 34 mg/dL. For the same molecule, the “Blood glucose level, 0 day” value ([5]; dose 62.5 μg/kg) was 380 mg/dL, the “Blood glucose level, 4th day” value ([5]; dose 62.5 μg/kg) was 371 mg/dL and the “Blood glucose level, 7th day” value ([5]; dose 62.5 μg/kg) was 365 mg/dL. The “Blood glucose level, 10th day” value ([5]; dose 62.5 μg/kg) was 351 mg/dL, the “Blood glucose level, 15th day” value ([5]; dose 62.5 μg/kg) was 346 mg/dL and the “Change in body weight” value ([5]; dose 125 μg/kg) was “+4.1 Gm”. The “Decrease in blood glucose after 15 days” value ([5]; dose 125 μg/kg) was 49 mg/dL, the “Blood glucose level, 0 day” value ([5]; dose 125 μg/kg) was 443 mg/dL and the “Blood glucose level, 4th day” value ([5]; dose 125 μg/kg) was 431 mg/dL. For the same molecule, the “Blood glucose level, 7th day” value ([5]; dose 125 μg/kg) was 413 mg/dL, the “Blood glucose level, 10th day” value ([5]; dose 125 μg/kg) was 401 mg/dL and the “Blood glucose level, 15th day” value ([5]; dose 125 μg/kg) was 394 mg/dL. The “Change in body weight” value ([5]; dose 250 μg/kg) was “+5.7 Gm”, the “Decrease in blood glucose after 15 days” value ([5]; dose 250 μg/kg) was 207 mg/dL and the “Blood glucose level, 0 day” value ([5]; dose 250 μg/kg) was 421 mg/dL. For the same molecule, the “Blood glucose level, 4th day” value ([5]; dose 250 μg/kg) was 397 mg/dL, the “Blood glucose level, 7th day” value ([5]; dose 250 μg/kg) was 345 mg/dL and the “Blood glucose level, 10th day” value ([5]; dose 250 μg/kg) was 219 mg/dL. The “Blood glucose level, 15th day” value ([5]; dose 250 μg/kg) was 214 mg/dL, the “Change in body weight” value ([5]; dose 500 μg/kg) was “+7.1 Gm” and the “Decrease in blood glucose after 15 days” value ([5]; dose 500 μg/kg) was 121 mg/dL. For the same molecule, the “Blood glucose level, 0 day” value ([5]; dose 500 μg/kg) was 412 mg/dL, the “Blood glucose level, 4th day” value ([5]; dose 500 μg/kg) was 388 mg/dL and the “Blood glucose level, 7th day” value ([5]; dose 500 μg/kg) was 372 mg/dL. The “Blood glucose level, 10th day” value ([5]; dose 500 μg/kg) was 312 mg/dL, the “Blood glucose level, 15th day” value ([5]; dose 500 μg/kg) was 291 mg/dL and the “OGTT blood glucose, 0 minutes” value ([6]; 0 minutes) was 165.8 mg/dL. The “OGTT blood glucose, 30 minutes” value ([6]; 30 minutes) was 194.4 mg/dL, the “OGTT blood glucose, 60 minutes” value ([6]; 60 minutes) was 211.8 mg/dL and the “OGTT blood glucose, 120 minutes” value ([6]; 120 minutes) was 160.3 mg/dL.
